In patent US20240368221A1, “IMPATIENS BALSAMINA-DERIVED ANTI-BACTERIAL PEPTIDE AND ANTI-BACTERIAL COMPOSITION CONTAINING SAME” (V&CO CO., LTD., priority 2021, published 2024):
Values after ≈ are worked out from the molar mass of the structure shown. Where a SMILES comes first, the peptide text is derived from it.

Legend:
[1] = test system: L929 cells (murine fibroblast cell line); test: Cytotoxicity, WST-1 cell viability; assay type: cell-based; conditions: L929 cells
Experimental: (§1) Specifically, cytotoxicity was evaluated using a skin cell line, L929 cells (murine fibroblast cell line). In addition, as comparative groups, Ib-AMP4 and the bee venom-derived AMP, melittin, known to be highly cytotoxic, were used. The L929 cells were cultured in RPMI 1640 medium (Gibco), which was supplemented with 10% FBS (Sigma), antibiotic-antimycotic cocktail, penicillin G (100 IU/mL), streptomycin (100 μg/mL), and amphotericin B (250 ng/ml; Gibco), at 37° C. in 5% CO2. The cells were seeded in a 96-well plate at 1×10^4 cell/well, incubated for 18 hours, treated with each peptide at 1.25 to 160 µg/mL, and then incubated for 24 hours. 10 μL of WST-1 reagent was added to 100 μL of the medium and allowed to react at 37° C. for 30 minutes, and then absorbance (A450) was measured at 450 nm using a microplate reader. Instead of the peptides, 0.1% Triton X-100 and PBS were used as positive and negative controls, respectively, and cell viability was calculated based on the following equation: % Cell viability=[(A450 in peptide solution−A450 in PBS)/(A450 in 0.1% Triton X−100-A450 in PBS)]×100. The analysis results were expressed as mean±S.D of three repeated experiments.

[2] = Cytotoxicity, WST-1 cell viability; assay type: cell-based, murine; conditions: mouse, L929 cells (murine fibroblast cell line), L929 cells
Experimental: as §1

[3] = test system: sheep red blood cells (sRBCs); test: Hemolytic activity; assay type: cell-based; conditions: for Hemolytic Activity (%): red cells of sheep
Experimental: Specifically, hemolytic activity was analyzed using sheep red blood cells (sRBCs). In addition, as comparative groups, Ib-AMP4 and melittin were used. Defibrinated sheep blood (MB cells) was centrifuged (4,000×g, 10 min, 4° C.), washed with PBS three times, and suspended in PBS, thereby preparing an sRBC solution (10% sRBC). 5% sRBC and each peptide were mixed to have a final concentration of 1.25 to 160 μg/mL, allowed to react at room temperature for 30 minutes, and centrifuged to collect a supernatant. The absorbance (A414) of hemoglobin eluted from the red blood cells in the collected supernatant was measured at 414 nm. 0.1% Triton X−100 was used as a positive control, PBS was used as a negative control, and hemolytic activity (% Hemolysis) was calculated based on the following equation: % Hemolysis=[(A414 in peptide solution−A414 in PBS)/(A414 in 0.1% Triton X−100−A414 in PBS)]×100.

[4] = test system: Escherichia coli KCCM 41290; assay type: cell-based; conditions: Escherichia coli
Experimental: (§2) To examine the antimicrobial and antifungal activity of the six types of peptide derivatives prepared in Example 1, antimicrobial and antifungal activity was analyzed using three types of bacterial strains and two types of fungal strains.
(§3) Specifically, to analyze antimicrobial and antifungal activity, a minimal inhibitory concentration (MIC) was measured. The three types of bacterial strains included Escherichia coli KCCM 41290, Staphylococcus aureus KCTC 1621, and Cutibacterium acnes KCTC 3314, and the two types of fungal strains included Candida albicans KCTC 17712, and Aspergillus niger KCTC 6317. The culture of Escherichia coli and Staphylococcus aureus was performed in Luria-Bertani (LB) medium (BD Difco), and the culture of Cutibacterium acnes was performed in reinforced clostridial medium (RCM, BD Difco). The culture of Candida albicans and Aspergillus niger was performed in potato dextrose (PD) medium (BD Difco). The pre-cultured microorganisms or spores were diluted in a medium to 5×10^3 CFU/mL, and each of the six types of peptide derivatives prepared in Example 1 was added at a predetermined concentration. Afterward, a bacterial strain was cultured at 37° C., a fungal strain was cultured at 25° C. for 18 to 24 hours, and optical densities (OD600) were measured using a microplate reader. Fluorescence values (Ex560 and Em600), instead of optical densities, were measured after adding a resazurin reagent to the Aspergillus niger medium to have a concentration of 100 μM. As a control, Ib-AMP4 was used, and the analysis results were expressed as the average of three repeated experiments.

[5] = test system: Staphylococcus aureus KCTC 1621; assay type: cell-based; conditions: Staphylococcus aureus
Experimental: as §2, §3

[6] = test system: Cutibacterium acnes KCTC 3314; assay type: cell-based; conditions: KCTC 3314
Experimental: as §2, §3

[7] = test system: Aspergillus niger KCTC 6317; assay type: cell-based; conditions: Aspergillus niger, PD medium, 25° C., 18 to 24 hours, resazurin fluorescence
Experimental: as §2, §3

[8] = test system: Candida albicans KCTC 17712; assay type: cell-based; conditions: Candida albicans, PD medium, 25° C., 18 to 24 hours, OD600
Experimental: as §2, §3

[9] = LB medium, 37° C., 18 to 24 hours, OD600

With `N=C(N)NCCC[C@H](NC(=O)CNC(=O)[C@H](Cc1c[nH]c2ccccc12)NC(=O)[C@@H](N)CCC(=O)O)C(=O)N[C@@H](CCCNC(=N)N)C(=O)N[C@@H](CS)C(=O)N[C@@H](CS)C(=O)NCC(=O)N[C@@H](Cc1c[nH]c2ccccc12)C(=O)NCC(=O)N1CCC[C@H]1C(=O)NCC(=O)N[C@@H](CCCNC(=N)N)C(=O)N[C@@H](CCCNC(=N)N)C(=O)N[C@@H](Cc1ccc(O)cc1)C(=O)N[C@@H](CS)C(=O)N[C@@H](CCCNC(=N)N)C(=O)N[C@@H](CCCNC(=N)N)C(=O)N[C@@H](Cc1c[nH]c2ccccc12)C(=O)N[C@@H](CS)C(N)=O` [Ib-AMP4] (H-EWGRRCCGWGPGRRYCRRWC-NH2; N-terminus assumed) the “cytotoxic activity (in words)” value [1] was “insignificant cytotoxic and hemolytic activity”, the viability at 24 h, 1.25 µg/mL ([2]; peptide 1.25 μg/mL, 24 hours, read-out: Relative cell viability (%)) was 95% and the viability at 24 h, 2.5 µg/mL ([2]; peptide 2.5 μg/mL, 24 hours, read-out: Relative cell viability (%)) was 94.4%. It also gave a viability at 24 h, 5 µg/mL ([2]; peptide 5.0 μg/mL, 24 hours, read-out: Relative cell viability (%)) of 95.1%, a viability at 24 h, 10 µg/mL ([2]; peptide 10 μg/mL, 24 hours, read-out: Relative cell viability (%)) of 95.7% and a viability at 24 h, 20 µg/mL ([2]; peptide 20 μg/mL, 24 hours, read-out: Relative cell viability (%)) of 97.3%. It also gave a viability at 24 h, 40 µg/mL ([2]; peptide 40 μg/mL, 24 hours, read-out: Relative cell viability (%)) of 90.4%, a viability at 24 h, 80 µg/mL ([2]; peptide 80 μg/mL, 24 hours, read-out: Relative cell viability (%)) of 92.2% and a viability at 24 h, 160 µg/mL ([2]; peptide 160 μg/mL, 24 hours, read-out: Relative cell viability (%)) of 89.2%. The viability at 24 h, 160 g/mL ([2]; peptide 160 g/mL as printed, read-out: cell viability) was no less than 90%, the “Hemolytic Activity (%)” value ([3]; 1.25 μg/mL) was 4.09% and the “Hemolytic Activity (%)” value ([3]; 2.5 μg/mL) was 4.47%. For the same compound, the “Hemolytic Activity (%)” value ([3]; 5 μg/mL) was 7.42%, the “Hemolytic Activity (%)” value ([3]; 10 μg/mL) was 8.42% and the “Hemolytic Activity (%)” value ([3]; 20 μg/mL) was 10.15%. The “Hemolytic Activity (%)” value ([3]; 40 μg/mL) was 15.79%, the “Hemolytic Activity (%)” value ([3]; 80 μg/mL) was 16.61% and the “hemolytic activity (in words)” value ([3]; sheep red blood cells) was “insignificant cytotoxic and hemolytic activity”. The “antimicrobial activity (in words)” value [4] was “insignificant antimicrobial activity”, the MIC [4, 9] was greater than 100 µg/mL and the “antimicrobial activity (in words)” value [5] was “insignificant antimicrobial activity”. The MIC [5, 9] was greater than 100 µg/mL, the MIC [6] was greater than 100 µg/mL and the MIC [7] was 80 µg/mL (≈ 31.5 µM). The MIC [8] was 60 µg/mL (≈ 23.6 µM).
